Active and inactive are the calls of the source. No cut-off for these calls is given here.

This note sets out measurements from ChEMBL document CHEMBL5321216, “Discovery of bipyridine amide derivatives targeting pRXRα-PLK1 interaction for anticancer therapy” (Eur J Med Chem, 2023).

Data set [1] has as its system HCC1937. Briefly: Antiproliferative activity against human HCC1937 cells assessed as inhibition of cell proliferation incubated for 72 hrs by MTT assay. To be noted: HCC1937, 72 h. In kind it is functional, cell-based.
Data set [2] concerns MCF7. Description: Antiproliferative activity against human MCF7 cells assessed as inhibition of cell proliferation incubated for 72 hrs by MTT assay. It counts as functional, cell-based. Particulars: MCF7, 72 h. (Tetrazolium dyes change colour on reduction, which living cells bring about.)
Data set [3] can be described thus: Cytotoxicity against HK-2 cells assessed as inhibition of cell proliferation incubated for 72 hrs by MTT assay. In kind it is toxicity, cell-based. Particulars: human.
Data set [4] in a line: Selectivity index, ratio of IC50 for human NCI-H460 cells to IC50 for human MDA-MB-231 cells. In kind it is functional.
Data set [5] relates to MDA-MB-231. Briefly: Induction of apoptosis in human MDA-MB-231 cells assessed as reduction in Mcl-1 protein expression measured after 24 hrs by Western blot analysis. In kind it is functional, cell-based. To be noted: dose 7.8-500 nM. On the technique in general: Immunoblotting shows a protein as a band on a membrane.
For data set [6], the target named is T1, Retinoic acid receptor RXR-alpha (Homo sapiens, UniProt P19793).
T1 sequence (P19793 whole entry): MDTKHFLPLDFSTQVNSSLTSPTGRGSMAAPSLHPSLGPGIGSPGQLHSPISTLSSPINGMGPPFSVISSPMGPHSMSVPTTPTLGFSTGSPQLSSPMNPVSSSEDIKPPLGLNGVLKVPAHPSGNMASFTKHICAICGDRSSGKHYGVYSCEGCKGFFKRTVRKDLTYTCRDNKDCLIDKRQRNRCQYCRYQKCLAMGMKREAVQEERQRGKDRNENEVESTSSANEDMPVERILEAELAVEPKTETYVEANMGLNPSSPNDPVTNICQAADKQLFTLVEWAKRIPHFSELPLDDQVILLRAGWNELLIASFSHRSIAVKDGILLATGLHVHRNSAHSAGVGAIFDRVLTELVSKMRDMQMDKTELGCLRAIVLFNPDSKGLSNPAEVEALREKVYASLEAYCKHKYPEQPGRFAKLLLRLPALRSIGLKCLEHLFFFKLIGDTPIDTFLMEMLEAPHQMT
Briefly: Binding affinity to RXRalpha LBD (unknown origin) assessed as dissociation constant by fluorescence quenching analysis.

Data set [7] addresses T2, Retinoic acid receptor RXR-alpha (Homo sapiens) (UniProt P19793).
T2 sequence (whole entry): T1 sequence (P19793 whole entry)
Briefly: Antagonist activity at RXRalpha (unknown origin) transfected in human HeLa cells assessed as inhibition of CD3254- induced receptor transactivation incubated for 24 hrs by dual luciferase reporter assay. To be noted: filed as antagonist, dose 12.5-100 µM. In kind it is cell-based.

In data set [8] the test system is A549. Description: Induction of apoptosis in human A549 cells assessed as live cells at 31.25 nM incubated for 24 hrs by annexin V-FITC/PI staining based flow cytometry analysis (reference value: 93.2%). It counts as functional. On the technique in general: A flow cytometer gives signals particle by particle.
Data set [9] deals with T3, Retinoic acid receptor RXR-gamma (Homo sapiens) (UniProt P48443).
T3 sequence (whole entry): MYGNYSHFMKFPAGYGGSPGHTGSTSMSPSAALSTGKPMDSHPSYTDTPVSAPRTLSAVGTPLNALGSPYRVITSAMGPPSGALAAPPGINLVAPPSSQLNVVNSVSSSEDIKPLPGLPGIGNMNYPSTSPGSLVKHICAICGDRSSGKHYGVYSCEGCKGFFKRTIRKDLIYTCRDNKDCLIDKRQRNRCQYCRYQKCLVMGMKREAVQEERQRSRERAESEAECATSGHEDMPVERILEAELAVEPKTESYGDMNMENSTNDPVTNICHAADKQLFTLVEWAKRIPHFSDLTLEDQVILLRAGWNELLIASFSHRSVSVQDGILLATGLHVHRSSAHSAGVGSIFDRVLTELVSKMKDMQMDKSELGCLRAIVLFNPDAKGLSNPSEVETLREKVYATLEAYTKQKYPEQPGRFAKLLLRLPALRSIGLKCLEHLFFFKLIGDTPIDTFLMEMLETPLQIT
Description: Antagonist activity at RXRgamma (unknown origin) transfected in human HeLa cells at 31.25 uM incubated for 24 hrs by dual luciferase reporter assay. In kind it is cell-based.

Data set [10] has as its system MDA-MB-231. Briefly: Induction of cell cycle arrest in human MDA-MB-231 cells assessed as accumulation of cells at S phase at 15.625 nM incubated for 12 hrs by flow cytometry analysis (reference value: 40.89%). It counts as functional. Particulars: 0.01562 µM.
Data set [11] has as its system MDA-MB-231. Description: Induction of cell cycle arrest in human MDA-MB-231 cells assessed as accumulation of cells at G1 phase at 62.5 nM incubated for 12 hrs by flow cytometry analysis (reference value: 43.2%). In kind it is functional.
Data set [12] concerns MDA-MB-231. Briefly: Induction of cell cycle arrest in human MDA-MB-231 cells assessed as accumulation of cells at S phase at 62.5 nM incubated for 12 hrs by flow cytometry analysis (reference value: 40.89%). In kind it is functional.
For data set [13], the system named is A549. Briefly: Induction of cell cycle arrest in human A549 cells assessed as accumulation of cells at G1 phase at 62.5 nM incubated for 12 hrs by flow cytometry analysis (reference value: 59.57%). In kind it is functional.
For data set [14], the system named is MDA-MB-231. Briefly: Induction of apoptosis in human MDA-MB-231 cells assessed as late apoptotic cells at 31.25 nM incubated for 24 hrs by annexin V-FITC/PI staining based flow cytometry analysis (reference value: 5.93%). In kind it is functional.
Data set [15] deals with MDA-MB-231. Briefly: Induction of apoptosis in human MDA-MB-231 cells assessed as dead cells at 31.25 nM incubated for 24 hrs by annexin V-FITC/PI staining based flow cytometry analysis (reference value: 0.69%). It counts as functional.
Data set [16] concerns MDA-MB-231. Briefly: Induction of apoptosis in human MDA-MB-231 cells assessed as early apoptotic cells at 62.5 nM incubated for 24 hrs by annexin V-FITC/PI staining based flow cytometry analysis (reference value: 2.03%). In kind it is functional.
For data set [17], the system named is MDA-MB-231. Briefly: Induction of apoptosis in human MDA-MB-231 cells assessed as late apoptotic cells at 125 nM incubated for 24 hrs by annexin V-FITC/PI staining based flow cytometry analysis (reference value: 5.93%). In kind it is functional.
Data set [18] deals with A549. Description: Antiproliferative activity against RXRalpha knockout human A549 cells assessed as inhibition of cell growth incubated for 72 hrs by MTT assay. In kind it is functional, cell-based. Particulars: A549, 72 h.
Data set [19] can be described thus: Cmax in Sprague-Dawley rat at 25 mg/kg, ip measured for 48 hrs by LC-MS/MS analysis. In kind it is ADME, organism-based. Details: time 48 hrs, dose 25 mg/kg, route ip. Particulars: in vivo.
In data set [20] the test system is MDA-MB-231. Description: Antitumor activity against human MDA-MB-231 cells xenografted in BALB/c nude mouse assessed as reduction in Ki67 protein expression at 25 mg/kg/day, ip administered for 15 days by immunohistochemical analysis. It counts as functional, organism-based. To be noted: time 15.0 day.
In data set [21] the test system is MDA-MB-231. Briefly: Antitumor activity against human MDA-MB-231 cells xenografted in BALB/c nude mouse assessed as inhibition of tumor growth by measuring mitotic arrest at 12.5 to 25 mg/kg/day, ip administered for 15 days. In kind it is functional, organism-based. To be noted: dose 12.5-25 mg/kg/day, time 15.0 day.
For data set [22], the system named is MDA-MB-231. Briefly: Antitumor activity against human MDA-MB-231 cells xenografted in BALB/c nude mouse assessed as inhibition of tumor growth by measuring DNA damaging response at 12.5 to 25 mg/kg/day, ip administered for 15 days. To be noted: dose 12.5-25 mg/kg/day, time 15.0 day. It counts as functional, organism-based.
Data set [23] concerns MDA-MB-231. Description: Upregulation of phosphorylated RXRalpha protein level in human MDA-MB-231 cells at 125 to 500 nM measured after 24 hrs by Western blot analysis. In kind it is functional, cell-based. Particulars: dose 125-500 nM.
Data set [24] relates to MDA-MB-231. Description: Induction of mitotic arrest in human MDA-MB-231 cells assessed as disordered spindle formation at 62.5 nM incubated for 12 hrs by alpha-tubulin/DAPI staining based confocal microscopic analysis. In kind it is functional, cell-based.

One may read the IC50 as the concentration that gives 50% inhibition. In general, Kd refers to a measure of binding affinity in units of concentration. One may read the Cmax as the highest concentration seen after dosing. For `O=C(/C=C/c1ccccc1)Nc1cc(-c2ccnc(N3CCC(CO)CC3)c2)ccn1`, the values for the IC50 in [1], in [2] and in data set [18] were 0.561 µM, 2.34 µM and 3.36 µM, respectively. In addition, the IC50 at 72 h in data set [3] worked out at 0.372 µM. Also, the “Ratio IC50” value in data set [4] is recorded as 15.81. The Activity entry is “Dose-Dependent Effect” in data set [5]; 70.9% in data set [8]; 41.47% in [10]; 1.81% in data set [11]; 16.51% in [12]; 59.43% in data set [13]. Besides, the Activity in data set [14] was 14.7%; in data set [15] it was 0.93%; in data set [16], 13.1%; in data set [17], 19.2%. Moreover, the Kd in data set [6] was determined as 0.147 µM. Besides, the inhibition result in data set [7] is “Dose-Dependent Effect”. Further, the result in data set [9] was inactive. Further, the concentration in data set [19] peaked (Cmax) at 8080 ng/mL. Moreover, the result in [20], in [21], in data set [22], in data set [23] and in data set [24] was Active.
